{"source": "patent US20210379078A1", "about": "“Killing Senescent Cells And Treating Senescence-Associated Conditions Using A Bcl Inhibitor And An Mcl-1 Inhibitor” (Unity Biotechnology, Inc., priority 2018, published 2021)", "key": {"[1]": {"conditions": "cited from earlier work"}, "Mcl-1 binding to BIM": {"system": "Mcl-1 binding to BIM", "experiment": "Target engagement co-immunoprecipitation with anti-BIM, western blot for Mcl-1", "assay_type": "cell-based", "conditions": "OA-dosed mouse lungs (8 hours) and MBE cells (4 hours)", "text": "A target engagement assay was developed to determine Bcl-xL and Mcl-1's respective interaction with BIM both in vivo in mice, or cells in culture, in order to predict senolysis. The respective binding pockets of Bcl-xL and Mcl-1 proteins under normal conditions sequestrate pro-apoptotic proteins, such as BIM. Co-immunoprecipitation (co-IP) was employed to study protein-protein interactions in order to determine if candidate senolytics can effectively displace Bcl-xL or Mcl-1 from BIM protein.\nLysates for co-IP experiments were prepared from: (a) lungs from mice that had been dosed for 8 hours by oral aspiration (OA) with either a candidate senolytic Bcl (Compound 1) or Mcl-1 inhibitor (S-63845), or a control vehicle treatment; or (b) mouse bronchiotrachael epithelial (MBE) cells, dosed for 4 hours with the same Bcl or Mcl-1 inhibitor, using a non-denaturing lysis buffer: PBS pH 7.4, 2% CHAPS, supplemented with a protease inhibitor cocktail (Roche®)). For every 0.25 gram of tissue 1 mL of lysis buffer was added to the sample, and next tissue was homogenized using a Precellys 24 (Bertin Technologies®; 3 cycles of 20 s and 20 s pause). Homogenates were cleared by centrifugation at 13000 g at 4° C. for 10 min, and the supernatant lysate was transferred to new tubes, aliquoted, flash-frozen using liquid nitrogen, and stored at −80° C. […]"}, "BIM-Bcl-xL interactions": {"target": "T1, BIM-Bcl-xL interactions (Mus musculus, UniProt Q64373)", "T1 construct": "Lysates for co-IP experiments were prepared from: (a) lungs from mice; endogenous in cells; host or cells: mouse lung tissue (oral aspiration dosing) and mouse bronchiotracheal epithelial (MBE) cells", "T1 sequence (Q64373 whole entry)": "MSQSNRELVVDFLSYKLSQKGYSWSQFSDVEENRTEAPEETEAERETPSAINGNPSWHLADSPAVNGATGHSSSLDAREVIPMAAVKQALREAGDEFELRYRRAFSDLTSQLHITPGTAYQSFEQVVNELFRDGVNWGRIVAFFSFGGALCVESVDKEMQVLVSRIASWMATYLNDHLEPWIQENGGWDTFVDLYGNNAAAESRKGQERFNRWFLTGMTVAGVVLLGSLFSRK", "experiment": "Target engagement co-immunoprecipitation with anti-BIM, western blot for Bcl-xL", "assay_type": "cell-based", "method": "Immunoprecipitations were performed using rabbit monoclonal anti-BIM (C34C5) antibodies (Cell Signaling Technology®) bound by Protein A-coated magnetic beads (Life Technologies®). 100 ul lysate was incubated with 10 μL of magnetic beads (pre-coated with 2 μg of antibody) for 1 hour at 4° C. in a Thermal Mixer at 1300 rpm (VWR®). After immunocapture, samples were washed three times with cold lysis buffer and eluted from the beads using non-reducing NuPAGE LDS Sample Buffer® (Life Technologies®). […]"}}}
{"smiles": "CN(C)CC[C@H](CSc1ccccc1)Nc1ccc(S(=O)(=O)NC(=O)c2ccc(N3CCN(Cc4ccccc4-c4ccc(Cl)cc4)CC3)cc2)cc1[N+](=O)[O-]", "note": "[ABT-737]", "values": [{"measurement": "dose-limiting toxicity in human patients", "setting": "[1]", "value": "dose-limiting thrombocytopenia"}]}
{"smiles": "Cc1c(C(=O)O)c(-c2cccc(N3CCN(c4ccc(NS(=O)(=O)c5ccc(N[C@H](CCN6CCC(OP(=O)(O)O)CC6)CSc6ccccc6)c(S(=O)(=O)C(F)(F)F)c5)cc4)CC3)c2)c(-c2ccc(Cl)cc2)n1C(C)C", "note": "[Compound 1]", "values": [{"measurement": "Mcl-1 binding to BIM (co-IP)", "setting": "Mcl-1 binding to BIM", "value": "compensatory Mcl-1 binding to BIM was observed"}, {"measurement": "BIM-Bcl-xL interactions (co-IP)", "setting": "BIM-Bcl-xL interactions; OA-dosed mouse lungs (8 hours) and MBE cells (4 hours)", "value": "blocked"}]}
{"smiles": "Cc1c(-c2c(-c3ccc(F)o3)sc3ncnc(O[C@H](Cc4ccccc4OCc4ccnn4CC(F)(F)F)C(=O)O)c23)ccc(OCCN2CCN(C)CC2)c1Cl", "note": "[Compound S-63845]", "values": [{"measurement": "Bcl-xL binding to BIM when Mcl-1 is inhibited (co-IP)", "setting": "BIM-Bcl-xL interactions; S-63845 at 1 uM and 10 uM", "value": "Bcl-xL appeared to compensate for BIM binding"}]}
